In PMC3734177, “Design, Synthesis, Evaluation and Thermodynamics of 1-Substituted Pyridylimidazo[1,5-a]Pyridine Derivatives as Cysteine Protease Inhibitors” (PLoS ONE, 2013):
Values after ≈ are worked out from the molar mass of the structure shown. Values joined by “and” are separate entries in the source; they are usually repeats but may differ in a detail not shown here. Equal values may be shown once. Read-outs that look alike come from different tables or passages of the source.

How the values were obtained:
[1] = target: T1, papain (Carica papaya, UniProt P00784); assay: Cysteine protease inhibitory activity, papain with Bz-DL-Arg-pNA substrate; format: biochemical
T1 construct: To solutions of active papain (final concentration: 0.05 mM); purchased Sigma Chemical Co., St. Louis, MO, USA
T1 sequence (P00784 134-345): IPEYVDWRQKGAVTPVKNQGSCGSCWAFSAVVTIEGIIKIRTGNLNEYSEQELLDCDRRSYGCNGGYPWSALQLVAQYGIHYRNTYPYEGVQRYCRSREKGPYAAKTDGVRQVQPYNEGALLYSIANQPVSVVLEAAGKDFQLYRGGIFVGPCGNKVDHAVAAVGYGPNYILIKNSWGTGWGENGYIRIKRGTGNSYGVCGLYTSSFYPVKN
Method: The capacity of the 1-pyridylimidazo[1,5-a]pyridine derivatives to inhibit cysteine proteases was tested using papain as the model enzyme. The proteolytic activity of the reaction mixtures was determined using Bz-DL-Arg-pNA as the chromogenic substrate. To solutions of active papain (final concentration: 0.05 mM) were added concentrated solutions of the different derivatives to final concentrations of 0.2 mM. […] The same procedure was used at 32°C and 42°C for thermodynamics studies. The kinetic parameters for the substrate hydrolysis were determined by measuring the initial rate of enzymatic activity. The inhibition constant Ki was determined by Dixon method and also by the Lineweaver–Burk equation. The Km value was calculated from the double-reciprocal equation by fitting the data into the computer software Origin 6.1. The Lineweaver–Burk plot was used to determine the types of inhibition. For the kinetic analysis and rate constant determinations, the assays were carried out in triplicate, and the average value was considered throughout this work.

[2] = system: Bacillus spp. (ATCC-14593); assay: MIC, micro dilution method; format: cell-based; settings: ATCC14593; Bacillus sp.
Method: (§1) The disk diffusion method was used for the preliminary antibacterial evaluation of 1-pyridylimidazo[1,5-a]pyridine derivatives. The MIC50 of these derivatives, showing inhibition in the preliminary tests, were further determined by the microtitre plate technique using micro dilution method. In brief, the bacterial strains (S. aureus, P. vulgaris, Group D Streptococci, Bacillus sp., E. coli, P. aeruginosa and S. morganii)) were grown and diluted to 2×10^5 colony-forming units (CFU)/ml in sodium phosphate buffer (SPB) containing 0.03% Luria–Bertani (LB) broth. The synthesized derivatives were dissolved in DMSO and their serial dilution was performed in 50 µL of LB medium in 96-well microtitre plate to achieve the required concentrations (0.1–10 µg/ml) with bacterial inoculums (5×10^4 CFU per well). DMSO was taken as negative control and Ceftriaxone and clotrimazole were taken as positive control. After incubation at 37°C overnight, the MICs were taken as the lowest inhibitor concentration at which the bacterial growth was inhibited. The average of three values was calculated and that was the MIC for the test material and bacterial strain. […]

[3] = system: Staphylococcus aureus (ATCC-25923); assay: MIC, micro dilution method; format: cell-based; settings: ATCC25923, S. aureus
Method: as §1

[4] = system: Proteus vulgaris (ATCC-29905); assay: MIC, micro dilution method; format: cell-based; settings: ATCC29905, P. vulgaris
Method: as §1

[5] = system: Pseudomonas aeruginosa (ATCC-27853); assay: MIC, micro dilution method; format: cell-based; settings: ATCC27853
Method: as §1

[6] = system: Escherichia coli (ATCC-25922); assay: MIC, micro dilution method; format: cell-based; settings: ATCC25922, E. coli
Method: as §1

[7] = system: Serratia morganii (ATCC- 31665); assay: MIC, micro dilution method; format: cell-based; settings: ATCC31665
Method: (§2) The disk diffusion method was used for the preliminary antibacterial evaluation of 1-pyridylimidazo[1,5-a]pyridine derivatives. The MIC50 of these derivatives, showing inhibition in the preliminary tests, were further determined by the microtitre plate technique using micro dilution method. In brief, the bacterial strains (S. aureus, P. vulgaris, Group D Streptococci, Bacillus sp., E. coli, P. aeruginosa and S. morganii)) were grown and diluted to 2×10^5 colony-forming units (CFU)/ml in sodium phosphate buffer (SPB) containing 0.03% Luria–Bertani (LB) broth. The synthesized derivatives were dissolved in DMSO and their serial dilution was performed in 50 µL of LB medium in 96-well microtitre plate to achieve the required concentrations (0.1–10 µg/ml) with bacterial inoculums (5×10^4 CFU per well). DMSO was taken as negative control and Ceftriaxone and clotrimazole were taken as positive control. After incubation at 37°C overnight, the MICs were taken as the lowest inhibitor concentration at which the bacterial growth was inhibited. The average of three values was calculated and that was the MIC for the test material and bacterial strain.
(§3) For the agar plate count method, 25 µL aliquots of bacteria at 1×10^5 CFU/ml in SPB containing 0.03% LB broth were incubated with 25 µL of diluted compounds for 2 h at 37°C. The mixtures of bacteria and compounds were serially diluted 10-fold with SPB and plated on LB plates that were incubated at 37°C overnight. Bacterial colonies were enumerated the following day.

[8] = system: Group D Streptococci (ATCC-12959); assay: MIC, micro dilution method; format: cell-based
Method: as §2, §3

[9] = system: Bacillus spp. (ATCC-14593); assay: MBC, sub cultivation from MIC plate; format: cell-based; settings: ATCC14593, Bacillus sp.
Method: (§4) After having determined the MICs, bacterial strains from the wells of the microtitre plate with no visible bacterial growth were removed for serial sub cultivation of 2 µl into another new microtitre plate containing 100 µl of broth per well and further incubated for 24 h. The lowest concentration with no visible growth was defined as MBC [28], indicating 99.5% killing of the original inoculum. The absorbance of each well was measured at a wavelength of 620 nm by Microplate Manager 4.0 (Bio-Rad laboratories) and compared with a blank. Solvent (DMSO) was used as a negative control. Three replicates were done for each compound and experiment was repeated two times.

[10] = system: Staphylococcus aureus (ATCC-25923); assay: MBC, sub cultivation from MIC plate; format: cell-based; settings: ATCC25923, S. aureus
Method: as §4

[11] = system: Proteus vulgaris (ATCC-29905); assay: MBC, sub cultivation from MIC plate; format: cell-based; settings: ATCC29905, P. vulgaris
Method: as §4

[12] = system: Pseudomonas aeruginosa (ATCC-27853); assay: MBC, sub cultivation from MIC plate; format: cell-based
Method: as §4

[13] = system: Serratia morganii (ATCC- 31665); assay: MBC, sub cultivation from MIC plate; format: cell-based
Method: as §4

[14] = system: Group D Streptococci (ATCC-12959); assay: MBC, sub cultivation from MIC plate; format: cell-based
Method: as §4

[15] = system: Escherichia coli (ATCC-25922); assay: MBC, sub cultivation from MIC plate; format: cell-based; settings: ATCC25922, E. coli
Method: as §4

[16] = target: T1, papain; assay: Thermodynamics analysis of papain inhibition (Van't Hoff); format: biochemical; settings: Value at 37°C
Method: Free energy changes of inhibition of papain against 1- substituted pyridylimidazo[1,5-a] pyridine derivatives (ΔG) were determined by the equation, [drawing 1] (1)
Temperature dependence of the inhibition constants was used to determine the thermodynamic parameters. Changes in enthalpy (ΔH) were determined from the Van’t Hoff plots by using the equation, [drawing 2] (2)
Where ΔH is enthalpy change, R is gas constant, ΔS is entropy change and T is the absolute temperature. The entropy change was obtained from the equation, [drawing 3] (3)

[17] = system: Bacillus spp. (ATCC-14593); assay: MIC, micro dilution method; format: cell-based; settings: ATCC14593; Bacillus sp.; remark: listed apart in the source

Question: CC(C)(C)c1cc(-c2nc(-c3ccccn3)c3ccccn23)cc(C(C)(C)C)c1O [Compound 3d, 1-(2-pyridyl)-3-(3,5-di-tert-butyl-4-hydroxyphenyl) imidazo[1,5-a]pyridine] was tested. Which Ki ([1]; 32°C) did it give?
Answer: The Ki was 110 µM.

Question: What about the Ki ([1]; 37°C) of the same compound?
Answer: Its Ki is 99.3 µM.

Question: What about the Ki ([1]; 42°C) of the same compound?
Answer: Its Ki is 89.2 µM.

Question: And the Type of inhibition ([1]; Lineweaver–Burk plot)?
Answer: Its Type of inhibition is “Non -Competitive”.

Question: What about the IC50 ([1]; papain) of the same compound?
Answer: The IC50 was 96.5 µM.

Question: What about the MIC50 [2] of the same compound?
Answer: Its MIC50 is 1.4 mg/L (≈ 3.5 µM).

Question: What about the MIC50 [3] of the same compound?
Answer: The MIC50 was 1.2 mg/L (≈ 3 µM).

Question: And the MIC90 [3]?
Answer: The MIC90 was 2.3 mg/L (≈ 5.76 µM).

Question: And the MIC50 [4]?
Answer: The MIC50 was 0.9 mg/L (≈ 2.25 µM).

Question: What about the MIC90 [4] of the same compound?
Answer: Its MIC90 is 1.7 mg/L (≈ 4.25 µM).

Question: What about the MIC50 [5] of the same compound?
Answer: Its MIC50 is 1.2 mg/L (≈ 3 µM).

Question: What about the MIC90 [5] of the same compound?
Answer: The MIC90 was 2 mg/L (≈ 5.01 µM).

Question: What about the MIC50 [6] of the same compound?
Answer: The MIC50 was 1.2 mg/L (≈ 3 µM).

Question: And the MIC90 [6]?
Answer: The MIC90 was 2.3 mg/L (≈ 5.76 µM).

Question: And the MIC50 [7]?
Answer: The MIC50 was 1.1 mg/L (≈ 2.75 µM).

Question: What about the MIC90 [7] of the same compound?
Answer: Its MIC90 is 2.1 mg/L (≈ 5.26 µM).

Question: What about the MIC50 [8] of the same compound?
Answer: Its MIC50 is 1 mg/L (≈ 2.5 µM).

Question: And the MIC90 [8]?
Answer: The MIC90 was 1.9 mg/L (≈ 4.76 µM).

Question: And the MBC ([9]; read-out: MBC50)?
Answer: Its MBC is 2.5 mg/L (≈ 6.26 µM).

Question: What about the MBC ([9]; read-out: MBC90) of the same compound?
Answer: The MBC was 4.7 mg/L (≈ 11.8 µM).

Question: And the MBC ([10]; read-out: MBC50)?
Answer: The MBC was 2.6 mg/L (≈ 6.51 µM).

Question: And the MBC ([10]; read-out: MBC90)?
Answer: The MBC was 5.2 mg/L (≈ 13 µM).

Question: What about the MBC ([11]; read-out: MBC50) of the same compound?
Answer: The MBC was 1.7 mg/L (≈ 4.25 µM).

Question: And the MBC ([11]; read-out: MBC90)?
Answer: Its MBC is 3.4 mg/L (≈ 8.51 µM).

Question: And the MBC ([12]; ATCC27853, read-out: MBC50)?
Answer: Its MBC is 2.4 mg/L (≈ 6.01 µM).

Question: And the MBC ([12]; ATCC27853, read-out: MBC90)?
Answer: The MBC was 4.4 mg/L (≈ 11 µM).

Question: And the MBC ([13]; ATCC31665, read-out: MBC50)?
Answer: Its MBC is 2.4 mg/L (≈ 6.01 µM).

Question: And the MBC ([13]; ATCC31665, read-out: MBC90)?
Answer: Its MBC is 4.4 mg/L (≈ 11 µM).

Question: What about the MBC ([14]; read-out: MBC50) of the same compound?
Answer: The MBC was 2.3 mg/L (≈ 5.76 µM).

Question: And the MBC ([14]; read-out: MBC90)?
Answer: Its MBC is 4.4 mg/L (≈ 11 µM).

Question: What about the MBC ([15]; read-out: MBC50) of the same compound?
Answer: Its MBC is 2.5 mg/L (≈ 6.26 µM).

Question: And the MBC ([15]; read-out: MBC90)?
Answer: The MBC was 4.9 mg/L (≈ 12.3 µM).

Question: And the “ΔG (free energy of binding)” value [16]?
Answer: The value was −5.64 Kcalmol^−1 and −5.64(±0.24) Kcalmol^−1.

Question: What about the “ΔS (entropy change)” value [16] of the same compound?
Answer: The value was 59.73(±1.93) Jmol-K^−1.

Question: And the “ΔH (enthalpy change)” value ([16]; Van't Hoff plot)?
Answer: The value was −5.2 (±0.84) KJmol^−1.

Question: What about the MIC90 [17] of the same compound?
Answer: The MIC90 was 2.6 mg/L (≈ 6.51 µM).
